Measurements published in patent US10987349B2, “Antitumor agent and bromodomain inhibitor” (FUJIFILM Corporation, priority 2016, dated 2021).

Key:
[1] = tested on: c-Myc gene; assay: Expression of c-Myc gene in MV4-11 cells, RT-PCR; format: cell-based, human; settings: MV4-11 cells, 10, 30 or 100 nmol/L, 6 hours
Experimental: (§1) A fluctuation in the expression of c-Myc, IL-7R and HEXIM1 genes in MV4-11 (ATCC) cells treated with the test compound was analyzed according to a reverse transcription polymerase chain reaction (RT-PCR) method.
(§2) MV4-11 cells were cultured for 6 hours in an RPMI-1640 medium supplemented with penicillin/streptomycin and FBS with a final concentration of 10%, to which the compound of Example 14 was added to a concentration of 10 nmol/L, 30 nmol/L or 100 nmol/L. On the other hand, a non-treatment group (Non-treatment) was established by culturing MV4-11 cells for 6 hours in the above-described medium, to which the compound of Example 14 was not added. Using Rneasy (registered trademark) (Qiagen), RNA was extracted from the above-described MV4-11 cells in accordance with the instruction manual included with the aforementioned device. […] Thereafter, a PCR reaction was carried out for 40 cycles (a cycle consisting of 95° C.-5 seconds and 60° C.-30 seconds.) Subsequently, the obtained reaction product was measured.
(§3) As a housekeeping gene, the expression level of GAPDH (Glyceraldehyde 3-phosphate dehydrogenase) was also evaluated. The ratio of the expression level of the mRNA of each of c-Myc, IL-7R and HEXIM1 to the expression level of GAPDH was calculated, and the expression level of each gene (relative expression level) was then quantified. […]

[2] = tested on: human acute myeloid leukemia cell line MOLM-13; assay: Cell growth test (Cell Titer Glo) MOLM-13; format: cell-based; settings: 3 to 5 days
Text: (§4) The human undifferentiated thymoma cell line Ty-82 (JCRB), the human acute myeloid leukemia cell lines MV4-11 (ATCC), MOLM-13 (ATCC) and RS4-11 (ATCC), the human lymphoma cell line Raji (JCRB), the human cervical epidermoid carcinoma cell line Hela (JCRB), the human lung adenocarcinoma cell line A549 (ATCC), the human colon cancer cell lines DLD1 (DS Pharma) and HCT116 (DS Pharma), and the human pancreatic cancer cell line MIAPACA-2 (ATCC) were used to carry out a cell growth test.
(§5) Ty-82, MV4-11, MOLM-13, RS4-11, Raji and DLD1 were each seeded in a well plate, in which Roswell Park Memorial Institute (RPMI)-1640 medium supplemented with penicillin/streptomycin and fetal bovine serum (FBS) with a final concentration of 10% was placed. Hela was seeded in Dulbecco's Modified Eagle's medium (DMEM) supplemented with penicillin/streptomycin and FBS with a final concentration of 10%. A549 and MIAPACA-2 were each seeded in a well plate, in which Minimum Essential Medium (MEM) supplemented with penicillin/streptomycin and FBS with a final concentration of 10% was placed. HCT116 was seeded in a well plate, in which McCoy's 5A medium supplemented with penicillin/streptomycin and FBS with a final concentration of 10% was placed.
(§6) Thereafter, a medium containing a test compound serially diluted with DMSO, or DMSO, was added to each well of the plate, in which the cells had been seeded, and the obtained mixture was then cultured under conditions of 37° C. and 5% CO2 for 3 to 5 days. Cell Titer Glo reaction solution (Promega) was added to the culture, and the amount of luminescence was then measured using Envision plate reader (PerkinElmer). Since the amount of luminescence is in proportion to the concentration of adenosine triphosphate (ATP) in cells, the amount of luminescence was used as an indicator of the number of living cells. The growth inhibition percentage of the test compound in each concentration was calculated according to the following equation. Growth inhibition percentage (%)=(amount of luminescence in test compound−added well)/(amount of luminescence in DMSO−added well)×100
(§7) The growth inhibition percentage of the test compound in each concentration was plotted by performing a non-linear regression analysis [(log (inhibitor) vs. response—Variable slope (four parameters)], using Graphpad prism 5, and a 50% growth inhibitory concentration [GI50 (nmol/L)] was then calculated.

[3] = tested on: c-Myc protein; assay: Expression of c-Myc protein in Ty-82 cells, Western blotting; format: cell-based, human; settings: 100 nmol/L, 24 hours
Experimental: It has been known that the antitumor action of a bromodomain inhibitor is associated with a c-Myc protein. Please refer to, for example, Non-Patent Document 3: Delmore J E et al., Cell, Vol. 146, pp. 904 to 917, 2011. With reference to the method described in Non-Patent Document 3, the ability of the compound of the present example to inhibit the expression of a c-Myc protein in cancer cells was evaluated according to Western blotting.
The human undifferentiated thymoma cell line Ty-82 (JCRB) used in the evaluation was seeded in a 6-well plate, in which an RPMI-1640 medium supplemented with penicillin/streptomycin and FBS with a final concentration of 10% was placed. A medium containing a test compound serially diluted with dimethyl sulfoxide (DMSO), or DMSO, was added to each well of the 6-well plate in which the cells had been seeded, and the obtained mixture was then cultured under conditions of 37° C. and 5% CO2 for 24 hours. Thereafter, the cells were recovered, and were then washed with PBS. After that, Lysis Buffer (10-fold diluted Cell Lysis Buffer (10×) (CST Japan), to which Halt Protease and Phosphatase Inhibitor Cocktail (Thermofisher Scientific) were added) was added to the resulting cells. The above-described cell suspension was subjected to an ultrasonic treatment to disintegrate the cells, and was then centrifuged to recover a supernatant. Sample buffer was added thereto, and the obtained mixture was then heated at 95° C. for 5 minutes.
A sample prepared from the above-described supernatant was loaded at a protein mass of 10 μg/lane on XV PANTERA GEL 7.5%-15% (D.R.C), and was then subjected to electrophoresis. The electrophoresed protein was transcribed on a transcription membrane, and was then inoculated with Anti-Myc antibody (CST, Catalog No. 9402) and then with IRDye® 680LT Donkey anti-Rabbit IgG (H+L) (LI-COR). Using Odessey (LI-COR), the fluorescence intensity at an excitation wavelength of 700 nm was measured, and the expression level of the c-Myc protein was then quantified.

[4] = tested on: IL-7R gene; assay: Expression of IL-7R gene in MV4-11 cells, RT-PCR; format: cell-based, human; settings: MV4-11 cells, 10, 30 or 100 nmol/L, 6 hours
Experimental: as §1, §2, §3

[5] = tested on: human undifferentiated thymoma cell line Ty-82; assay: Cell growth test (Cell Titer Glo) Ty-82; format: cell-based; settings: TY82, 3 to 5 days
Text: as §4, §5, §6, §7

Row | GI50 [2] [nM] | GI50 [5] [nM] | SMILES | mRNA expression of c-Myc (GAPDH correction) [1] | expression level of c-Myc protein [3] | mRNA expression of IL-7R (GAPDH correction) [4]
1 | 32 | 12 | CCn1c(=O)cc(C2CCN(C)CC2)c2cc(C(=O)N(C)c3ccc(C)cc3)ccc21 [Example 14, 1-Ethyl-N-methyl-N-(4-methylphenyl)-4-(1-methylpiperidin-4-yl)-2-oxo-1,2-dihydroquinoline-6-carboxamide] | decreased in a compound concentration-dependent manner | significantly reduced | decreased in a compound concentration-dependent manner
2 | 16 | 6 | CCn1c(=O)cc(C2CCN(C)CC2)c2cc(C(=O)N(C)c3ccc4c(c3)CCC4)ccc21 [Example 17, N-(2,3-dihydro-1H-inden-5-yl)-1-ethyl-N-methyl-4-(1-methylpiperidin-4-yl)-2-oxo-1,2-dihydroquinoline-6-carboxamide] |  | significantly reduced | 
3 | 37 | 10 | CCn1c(=O)cc(N2CCOCC2)c2cc(-n3c(-c4ccc(Cl)cc4)c[nH]c3=O)ccc21 [Example 245, 6-(5-(4-chlorophenyl)-2-oxo-2,3-dihydro-1H-imidazol-1-yl)-1-ethyl-4-(morpholin-4-yl)quinolin-2(1H)-one] |  | significantly reduced | 
